# Results published in patent publication US20200138825A1, “METHOD OF TREATING MALIGNANT RHABDOID TUMOR OF THE OVARY (MRTO)/SMALL CELL CANCER OF THE OVARY OF THE HYPERCALCEMIC TYPE(SCCOHT) WITH AN EZH2 INHIBITOR” (Epizyme, Inc., priority 2015, published 2020).
# Where “and” joins values, the source holds several entries; their conditions need not be identical. Identical values can stand only once. Entries after “also recorded” stand apart in the source; their conditions may differ. Marks after values point to notes of the source that are not given here.
# Experiments:
# [1] = test system: H3K27me3 in INI1- and SMARCA4-negative tumors; experiment: Pharmacodynamic H3K27me3 inhibition in tumor tissue of patients; format: in vivo, human
# Oral bioavailability = conditions: in vivo
# [2] = test system: cell lines and xenografts deficient in INI1 (SNF5/SMARCB1); conditions: Knutson et al. PNAS 2013; cited from earlier work
# [3] = test system: SMARCA4-negative malignant rhabdoid tumor of ovary (SCCOHT); experiment: Phase 1 clinical activity, SMARCA4-negative malignant rhabdoid tumor of ovary (SCCOHT); format: in vivo, human; conditions: for Tumor size: person, 1600 mg BID oral tablet
# Method: (§1) Table 2 describes a Phase 1 clinical trial design (sponsor protocol no.: E7438-G000-001, ClinicalTrials.gov identifier: NCT01897571). The study population included subjects with relapsed or refractory solid tumors or B-cell lymphoma. Subjects received a 3+3 dose-escalation in expansion cohorts receiving 800 mg BID and 1600 mg BID, respectively, or a cohort for ascertaining the effect of food on dosing at 400 mg BID. The primary endpoint was a determination of recommended phase II dose (RP2D)/maximum tolerated dose (MTD). Secondary endpoints included safety, pharmacokinetics (PK), pharmacodynamics (PD) and tumor response, assessed every 8 wks.
# COV434 xenograft tumors = experiment: SCCOHT xenograft model (COV434); format: in vivo
# Method: After day 28, a portion of the COV434 xenograft cohort were retained to monitor for tumor regrowth while under no treatment, of which there was none. EZH2 target inhibition was assessed by H3K27me3 levels in xenograft tissue collected on day 28 (FIG. 19B). Each point represents the ratio of H3K27me3 to total H3 from the tumor of a single animal.
# Bin-67 xenograft tumors = experiment: SCCOHT xenograft model (Bin-67); format: in vivo
# Method: EZH2 target inhibition was assessed by H3K27me3 levels in xenograft tissue collected on day 18 (FIG. 18B). Each point represents the ratio of H3K27me3 to total H3 from the tumor of a single animal.
# [4] = test system: JHOC-5, TYKNU, PA-1, OAW42, ES-2, COV362 cell lines; experiment: Long-term proliferation assays, single-deficient or WT ovarian cell lines; format: cell-based
# [5] = human, in vivo
# Method: as §1
# [6] = test system: INI1-negative malignant rhabdoid tumor; experiment: Phase 1 clinical activity, INI1-negative malignant rhabdoid tumor; format: in vivo, human; conditions: for Best Response / Time on study: INI1-negative malignant rhabdoid tumor
# Method: as §1
# [7] = test system: Dual SMARCA2 and SMARCA4 deficient ovarian cell lines; conditions: four SMARCA2-deficient and SMARCA4-deficient cell lines
# [8] = test system: SMARCA4-negative thoracic sarcoma; experiment: Phase 1 clinical activity, SMARCA4-negative thoracic sarcoma; format: in vivo, human; conditions: 1600 mg BID
# Method: as §1
# [9] = test system: INI1-negative epithelioid sarcoma; experiment: Phase 1 clinical activity, INI1-negative epithelioid sarcoma; format: in vivo, human
# Method: as §1
# MRT and MRTO/SCCOHT = experiment: Assessment of clinical activity in MRT and MRTO/SCCOHT; format: in vivo, human; conditions: MRT and MRTO/SCCOHT following treatment
# TOV112D xenograft tumors = experiment: SCCOHT xenograft model (TOV112D); format: in vivo
# Method: EZH2 target inhibition was measured by H3K27me3 levels in xenograft tissue collected on day 14 (FIG. 20B). Each point represents the ratio of H3K27me3 to total H3 from the tumor of a single animal.
# [10] = 800 mg BID, + = remains on study
smiles,measurement,setting,value
CCN(c1cc(-c2ccc(CN3CCOCC3)cc2)cc(C(=O)NCc2c(C)cc(C)[nH]c2=O)c1C)C1CCOCC1 [tazemetostat],antitumor activity,G401 xenograft,antitumor activity
same,pharmacodynamics inhibition of HeK27me3 in tumor tissue,[1],induces pharmacodynamics inhibition of HeK27me3
same,oral bioavailability,Oral bioavailability,orally bioavailable
same,sensitivity of INI1-deficient cell lines and xenografts,[2],profound sensitivity and durable regressions
same,clinical activity,"[3]; Phase 1, two patients with SCCOHT (SMARCA4-negative)",Clinical activity was observed
same,Best Response,"[3]; SMARCA4-negative SCCOHT, 1600 mg BID",PR week 8*; also recorded: SD week 8
same,Time on study,"[3]; SMARCA4-negative SCCOHT, 1600 mg BID, + = remains on study",25+ weeks and 26+ weeks
same,Tumor size,[3]; after 8 weeks,decreased from baseline
same,Tumor size,[3]; after 16 weeks,further decreased from the 8 week measurement
same,tumor volume compared to vehicle,COV434 xenograft tumors; after 28 days,statistically significant differences in volume compared to vehicle
same,tumor regrowth while under no treatment,COV434 xenograft tumors; after day 28,none
same,tumor volume compared to vehicle,Bin-67 xenograft tumors; after 18 days,statistically significant differences in volume compared to vehicle
same,H3K27me3 in xenograft tumors,Bin-67 xenograft tumors; after 18 days of treatment,reduction of H3K27me3
same,sensitivity,[4],Lower sensitivity
same,"Anemia, All Events, All Grades",[5],7
same,"Anemia, All Events, Grade n",[5],1
same,"Anemia, All Treatment-Related, All Grades",[5],3
same,"Anemia, All Treatment-Related, Grade n",[5],0
same,"Asthenia, All Events, All Grades",[5],28
same,"Asthenia, All Events, Grade n",[5],1
same,"Asthenia, All Treatment-Related, All Grades",[5],12
same,"Asthenia, All Treatment-Related, Grade n",[5],0
same,"Constipation, All Events, All Grades",[5],7
same,"Constipation, All Events, Grade n",[5],0
same,"Constipation, All Treatment-Related, All Grades",[5],2
same,"Constipation, All Treatment-Related, Grade n",[5],0
same,"Decreased appetite, All Events, All Grades",[5],11
same,"Decreased appetite, All Events, Grade n",[5],3
same,"Decreased appetite, All Treatment-Related, All Grades",[5],3
same,"Decreased appetite, All Treatment-Related, Grade n",[5],1
same,"Dysgeusia, All Events, All Grades",[5],5
same,"Dysgeusia, All Events, Grade n",[5],0
same,"Dysgeusia, All Treatment-Related, All Grades",[5],5
same,"Dysgeusia, All Treatment-Related, Grade n",[5],0
same,"Dyspnea, All Events, All Grades",[5],8
same,"Dyspnea, All Events, Grade n",[5],0
same,"Dyspnea, All Treatment-Related, All Grades",[5],0
same,"Dyspnea, All Treatment-Related, Grade n",[5],0
same,"Elevated LFTs, All Events, All Grades",[5],2
same,"Elevated LFTs, All Events, Grade n",[5],1
same,"Elevated LFTs, All Treatment-Related, All Grades",[5],0
same,"Elevated LFTs, All Treatment-Related, Grade n",[5],1
same,"Hypertension, All Events, All Grades",[5],3
same,"Hypertension, All Events, Grade n",[5],1
same,"Hypertension, All Treatment-Related, All Grades",[5],1
same,"Hypertension, All Treatment-Related, Grade n",[5],1
same,"Muscle Spasms, All Events, All Grades",[5],5
same,"Muscle Spasms, All Events, Grade n",[5],0
same,"Muscle Spasms, All Treatment-Related, All Grades",[5],2
same,"Muscle Spasms, All Treatment-Related, Grade n",[5],0
same,"Nausea, All Events, All Grades",[5],8
same,"Nausea, All Events, Grade n",[5],0
same,"Nausea, All Treatment-Related, All Grades",[5],7
same,"Nausea, All Treatment-Related, Grade n",[5],0
same,"Neutropenia, All Events, All Grades",[5],2
same,"Neutropenia, All Events, Grade n",[5],1
same,"Neutropenia, All Treatment-Related, All Grades",[5],1
same,"Neutropenia, All Treatment-Related, Grade n",[5],1
same,"Thrombocytopenia, All Events, All Grades",[5],10
same,"Thrombocytopenia, All Events, Grade n",[5],2
same,"Thrombocytopenia, All Treatment-Related, All Grades",[5],6
same,"Thrombocytopenia, All Treatment-Related, Grade n",[5],1
same,"Vomiting, All Events, All Grades",[5],6
same,"Vomiting, All Events, Grade n",[5],0
same,"Vomiting, All Treatment-Related, All Grades",[5],3
same,"Vomiting, All Treatment-Related, Grade n",[5],0
same,Best Response,[6]; 400 mg BID,SD week 8
same,Time on study,"[6]; 400 mg BID, + = remains on study",12+ weeks
same,Best Response,[6]; 800 mg BID,complete remission (CR); also recorded: CR week 8*; also recorded: PD week 8
same,Time on study,[6]; [10],65+ weeks and 35 weeks
same,Time on study,[6]; 1600 mg BID,16 weeks and 17 weeks
same,response,"[6]; patient with INI1-negative (IHC) relapsed malignant rhabdoid tumor, Phase 1",complete response
same,inhibition of cell growth,[7],Dose-dependent inhibition of cell growth
same,Best Response,[8],PD week 5
same,Time on study,[8],6 weeks
same,Best Response,[9]; 400 mg BID,PD week 8
same,Time on study,[9]; 400 mg BID,11 weeks
same,Best Response,[9]; 800 mg BID,partial remission (PR); also recorded: PR week 8; also recorded: SD week 8
same,Time on study,[9]; [10],25+ weeks and 24+ weeks
same,clinical activity,MRT and MRTO/SCCOHT,"stable disease for at least six months, partial remission or complete remission"
same,tumor volume compared to vehicle,"TOV112D xenograft tumors; 14 days, twice daily",statistically significant differences in volume compared to vehicle
same,H3K27me3 in xenograft tumors,TOV112D xenograft tumors; after 14 days of treatment,reduction of H3K27me3
